Measurements as given in US10351915B2 (Berg LLC, priority 2009, dated 2019).

Experiments:
[1] = test system: SKBr3; assay: Nexin assay for apoptosis (flow cytometry); format: cell-based, human; conditions: 50 μM or 100 μM Q10, 24 hours
Excerpt: The 7AAD dye will enter into cells with permeabilized cell membranes; primarily those cells that are in late apoptosis. Annexin-V-PE is a dye that binds to Phosphotidyl serine, which is exposed on the outer surface of the plasma membrane in early apoptotic cells. The Nexin reagent thus can be used to differentiate between different populations of apoptotic cells in a flow cytometer.

[2] = test system: various cell types; assay: Minimal CoQ10 concentration and treatment time for induction of early apoptosis (Bcl-2, caspase, annexin V); format: cell-based
Procedure: CoQ10 treatment of cells was carried out as described in detail below in the Materials and Methods. Induction of apoptosis was assessed in the treated cells by monitoring indicators of early apoptosis (e.g., Bcl-2 expression, caspase activation and by using annexin V assays) as described below. From these studies, the minimal CoQ10 dosage, e.g., concentration of CoQ10 and time of treatment, required to induce apoptosis in the panel of cell lines was determined.
Cells were cultured in T-75 flasks with relevant medium supplemented with 10% Fetal Bovine Serum (FBS), 1% PSA (penicillin, streptomycin, amphotericin B) (Invitrogen and Cellgro) in a 37° C. incubator with 5% CO2 levels until 70-80% confluence was reached. To harvest cells for treatment, flasks were primed with 1 mL Trypsin, aspirated, trypsinized with an additional 3 mL, and incubated at 37° C. for […]. Cells were then neutralized with an equal volμme of media and the subsequent solution was centrifuged at […] for 8 minutes. The supernatant was aspirated and the cells were resuspended with 8.5 ml of media. A mixture of 500 ul of the resuspension and 9.5 ml of […] was read twice by a coulter counter and the appropriate number of cells to be seeded into each dish was determined. Control and concentration ranging from 0-200 μM groups were examined in triplicate. From a 500 μM CoQ-10 stock solution, serial dilutions were performed to achieve desired experimental concentration in appropriate dishes. Dishes were incubated in a 37° C. incubator with 5% CO2 levels for 0-72 hours depending on cell type and experimental protocol.
The volume of sample to load per well was determined using the raw mean concentration of protein obtained from the BCA protein assay. Approximately 30-60 μg of protein were loaded for each treatment time point. Proteins were run in triplicate on 12% Tris-HCl ready gels (Bio-Rad) or hand cast gels in 1× running buffer at 85 and 100 volts. Proteins were then transferred onto nitrocellulose paper for an hour at 100 volts, and blocked for another hour in a 5% milk solution. Membranes were placed in primary antibody (1 uL Ab:1000 uL TBST) (Cell Signaling) overnight at […] The following day, membranes were washed three times for ten minutes each with Tris-Buffered Saline Tween-20 (TBST), and secondary antibody (anti-rabbit; 1 uL Ab: 1000 uL TBST) was applied for an hour at […] Membranes were washed again three times for ten minutes with TBST and chemoluminescence using Pico or Femto substrate was completed (Pierce). Membranes were then developed at time intervals that produced the best visual results. After developing, membranes were kept in TBST at […] until Actin levels could be measured.
Cells were washed twice in PBS10X and resuspended in Binding Buffer (0.1 M HEPES, pH 7.4; 1.4 M NaCl; 25 mM CaCl2). Samples of 100 μl were added to a culture tube with 5 μl of annexin-PE dye or […]. The cells were mixed and incubated without light at room temperature for 15 minutes. After which, 400 μl of 1× Binding Buffer was added to each sample and they were subjected to analysis by flow cytometry.

[3] = test system: PaCa-2 cells; assay: Extracellular acidification rate (ECAR), SeaHorse XF analyzer; format: cell-based; conditions: normoxia, high glucose
Procedure: (SeaHorse Biosciences Inc, North Billerica, Mass.).
In contrast to normal cells, cancer cells are phenotypically primed to use high glucose for ATP generation (enhanced glycolysis) resulting in higher ECAR (Table 129, ECAR for untreated normoxia 17 mM) at 21 mpH/min. […] The associated decrease in OCR in these cells was likely associated with increased efficiency of the mitochondrial OXPHOS.

[4] = cited from earlier work
[5] = test system: skin cancer cells; conditions: skin cancer cells vs normal cells; cited from earlier work

COC1=C(OC)C(=O)C(C/C=C(\C)CC/C=C(\C)CC/C=C(\C)CC/C=C(\C)CC/C=C(\C)CC/C=C(\C)CC/C=C(\C)CC/C=C(\C)CC/C=C(\C)CCC=C(C)C)=C(C)C1=O [Q10, Coenzyme Q10]
early and late apoptosis [1]: did not show any significant increases of early and late apoptosis | Indication of Early apoptosis (Bcl-2, annexin V, or caspase activation) ([2]; BONE: Ewing's sarcoma (NCI)): Extremely | Minimal treatment Time for induction of early apoptosis ([2]; BONE: Ewing's sarcoma (NCI)): 1 h | Indication of Early apoptosis (Bcl-2, annexin V, or caspase activation) ([2]; BONE: Osteosarcoma (143b)): Very Strong | Minimal treatment Time for induction of early apoptosis ([2]; BONE: Osteosarcoma (143b)): 48 h | Indication of Early apoptosis (Bcl-2, annexin V, or caspase activation) ([2]; BREAST: BT-20): Strong | Minimal treatment Time for induction of early apoptosis ([2]; BREAST: BT-20): 48 h | Indication of Early apoptosis (Bcl-2, annexin V, or caspase activation) ([2]; BREAST: MCF-7): Strong | Minimal treatment Time for induction of early apoptosis ([2]; BREAST: MCF-7): 48 h | Indication of Early apoptosis (Bcl-2, annexin V, or caspase activation) ([2]; BREAST: MDA MB 468): Strong | Minimal treatment Time for induction of early apoptosis ([2]; BREAST: MDA MB 468): 48 h | Indication of Early apoptosis (Bcl-2, annexin V, or caspase activation) ([2]; BREAST: SkBr-3): Very Strong | Minimal treatment Time for induction of early apoptosis ([2]; BREAST: SkBr-3): 24 h | Indication of Early apoptosis (Bcl-2, annexin V, or caspase activation) ([2]; BREAST: ZR-75): Slight | Minimal treatment Time for induction of early apoptosis ([2]; BREAST: ZR-75): 72 h | Indication of Early apoptosis (Bcl-2, annexin V, or caspase activation) ([2]; Heart: Aortic smooth muscle (HASMC)): None | Indication of Early apoptosis (Bcl-2, annexin V, or caspase activation) ([2]; LIVER: Hep3B): Very Strong | Minimal treatment Time for induction of early apoptosis ([2]; LIVER: Hep3B): 24 h | Indication of Early apoptosis (Bcl-2, annexin V, or caspase activation) ([2]; LIVER: HepG2): Very Strong | Minimal treatment Time for induction of early apoptosis ([2]; LIVER: HepG2): 24 h | Indication of Early apoptosis (Bcl-2, annexin V, or caspase activation) ([2]; Mammary fiboblasts: 184A1 and 184B5): None | Indication of Early apoptosis (Bcl-2, annexin V, or caspase activation) ([2]; Melanoma (Skmel 2)): Very Strong | Minimal treatment Time for induction of early apoptosis ([2]; Melanoma (Skmel 2)): 24 h | Indication of Early apoptosis (Bcl-2, annexin V, or caspase activation) ([2]; Melanoma (Skmel 28)): Strong | Minimal treatment Time for induction of early apoptosis ([2]; Melanoma (Skmel 28)): 24 h | Indication of Early apoptosis (Bcl-2, annexin V, or caspase activation) ([2]; PANCREAS: PaCa2): Very Strong | Minimal treatment Time for induction of early apoptosis ([2]; PANCREAS: PaCa2): 24 h | Indication of Early apoptosis (Bcl-2, annexin V, or caspase activation) ([2]; PROSTATE: PC3): Very Strong | Minimal treatment Time for induction of early apoptosis ([2]; PROSTATE: PC3): 24 h | Indication of Early apoptosis (Bcl-2, annexin V, or caspase activation) ([2]; SCC, Squamous cell carcinoma): Very Strong | Minimal treatment Time for induction of early apoptosis ([2]; SCC, Squamous cell carcinoma): 24 h | Indication of Early apoptosis (Bcl-2, annexin V, or caspase activation) ([2]; SKIN: Fibroblasts (nFib)): None | Indication of Early apoptosis (Bcl-2, annexin V, or caspase activation) ([2]; SKIN: Keratinocytes (Heka, Hekn)): None | Indication of Early apoptosis (Bcl-2, annexin V, or caspase activation) ([2]; SKIN: Melanocytes (Hema, LP)): None | effect on normal cells ([2]; normal cells, including keratinocytes and dermal fibroblasts): increased proliferation and migration | efficacy of Coenzyme Q10 treatment (induction of apoptosis) ([2]; oncogenic cell lines): greater in cell types that exhibited increased oncogenicity and/or greater metastatic potential | ECAR rates [3]: significant decrease in ECAR rates | solubility in water [4]: insoluble in water | rate of apoptosis [5]: increase the rate of apoptosis in a culture of skin cancer cells but not normal cells
